Reference: patent US20220401440A1, “DOSING REGIMENS FOR A PROTEIN KINASE C INHIBITOR” (IDEAYA BIOSCIENCES, INC., priority 2019, published 2022)
Values joined by “and” are separate entries in the source; they are usually repeats but may differ in a detail not shown here. Equal entries are not always repeated. Where two headings read alike, the source gives them in different places.

Assays:
[1] = Phase 1/2 study: plasma pharmacokinetics of Compound (I) in patients (LC-MS/MS, non-compartmental analysis); type: in vivo, human
Method: The following example presents a phase 1/2 study of Compound (I) in patients with solid tumors harboring GNAQ/11 mutations or PRKC fusions.
Patients with MUM were sequentially enrolled into Cohort 1 or Cohort 2. Enrollment into Cohort 2 was not initiated until enrollment into Cohort 1 was completed and the dose considered safe. • a. Cohort 1. 6 patients were sequentially enrolled and received 300 mg twice a day (BID), daily, for 28-day treatment cycles. • b. Cohort 2. 6 patients were sequentially enrolled and received 400 mg BID, preceded by an initial 7-day 200 mg BID run-in period, for 28-day treatment cycles. All patients continue to receive treatment with Compound (I) unless the subject experiences one or more of the following: • Adverse event • Lost to follow-up • Physician decision • Progressive disease • Study termination by the Sponsor • Patient/guardian decision • Protocol deviation • Non-compliance with protocol • Death • Pregnancy NUMBER OF SUBJECTS: 12 patients
The following example presents pharmacokinetic results from the study as described in Example 1.
Blood samples were collected on Cycle 1 Day 1 and Day 15 from patients who were administered 300 mg BID of Compound (I), and on Cycle 1 Day 8 and Day 22 from patients who were administered 200 mg BID for 7 days followed by 400 mg BID of Compound (I) for the remainder of the treatment cycle. The plasma samples were processed by protein precipitation (see Ahuja S and Dong M. W, Handbook of Pharmaceutical Analysis by HPLC, Elsevier Inc., Chapter 17, page 433, 2005) and analyzed using an LC-MS/MS method; Quantification was achieved using Compound (I) peak area to internal standard (3-amino-N-(3-(4-amino-4-(methyl-d3)piperidin-1-yl)pyridin-2-yl)-6-(3-(trifluoromethyl)pyridin-2-yl)pyrazine-2-carboxamide) peak area ratios. Concentrations of the calibration curve standards, quality control samples, and patient samples were determined by the method of 1/x^2 weighted least squares linear regression.
The Pharmacokinetic parameters were calculated using Phoenix WinNonlin software (non-compartmental analysis).

[2] = tested on: metastatic uveal melanoma (MUM); conditions: cited from earlier work
[3] = Hypotension studies: adverse events, single agent Compound (I) BID schedule (Table 5); type: in vivo, human
[4] = cited from earlier work; for Dose limiting toxicities (DLTs): evaluable patients
[5] = individual patients, 300 mg BID, C1 Day 1
[6] = individual patients, 300 mg BID, C1 Day 15
[7] = individual patients, 400 mg BID with 200 mg run-in
[8] = individual patients, 400 mg BID with 200 mg run-in, C1 Day 8
[9] = individual patients, 400 mg BID with 200 mg run-in, C1 Day 22
[10] = cohort that received BID dosing of 200 to 400 mg
[11] = 300 mg BID, N = 18, regardless of study drug relationship
[12] = 400 mg, N = 6, regardless of study drug relationship
[13] = All BID Patients, N = 30, regardless of study drug relationship

CC1(N)CCN(c2cccnc2NC(=O)c2nc(-c3ncccc3C(F)(F)F)cnc2N)CC1 [Compound (I), 3-amino-N-(3-(4-amino-4-methylpiperidin-1-yl)pyridin-2-yl)-6-(3-(trifluoromethyl)pyridin-2-yl)pyrazine-2-carboxamide]
AUC0-12 [1, 5]: 22.974 µg·h/mL and 17.983 µg·h/mL and 3.597 µg·h/mL and 22.48 µg·h/mL and 19.439 µg·h/mL and 43.19 µg·h/mL and 35.321 µg·h/mL and 26.969 µg·h/mL and 39.949 µg·h/mL and 233.274 µg·h/mL and 26.345 µg·h/mL and 19.768 µg·h/mL | Cmax [1, 5]: 3.159 µg/mL and 2.98 µg/mL and 0.607 µg/mL and 3.147 µg/mL and 4.367 µg/mL and 8.94 µg/mL and 7.009 µg/mL and 5.386 µg/mL and 6.252 µg/mL and 5.549 µg/mL and 3.866 µg/mL and 5.523 µg/mL and 2.256 µg/mL | Tmax [1, 5]: 4 h and 2 h and 1 h and 0.5 h | AUC0-12 [1, 6]: 19.049 µg·h/mL and 15.64 µg·h/mL and 5.511 µg·h/mL and 15.071 µg·h/mL and 21.194 µg·h/mL and 23.6 µg·h/mL and 19.185 µg·h/mL and 17.909 µg·h/mL and 10.949 µg·h/mL and 24.582 µg·h/mL and 28.493 µg·h/mL and 16.155 µg·h/mL and 13.083 µg·h/mL | Cmax [1, 6]: 3.965 µg/mL and 2.149 µg/mL and 1.392 µg/mL and 3.079 µg/mL and 2.984 µg/mL and 3.442 µg/mL and 2.782 µg/mL and 2.574 µg/mL and 2.969 µg/mL and 3.618 µg/mL and 4.203 µg/mL and 2.348 µg/mL and 2.971 µg/mL | Tmax [1, 6]: 0.5 h and 1 h and 2 h | AUC ratio D22/D8 [1, 7]: 1.3 (3×) and 1.1 (2×) and 0.84 and 0.66 and 0.75 and 1.0 (3×) and 0.85 and 0.95 and 0.59 and 0.88 and 1.5 and 0.42 and 1.2 and 0.64 and 0.70 and 1.4 | Cmin on C1D22 [1, 7]: 1.019 µg/mL and 0.969 µg/mL and 0.931 µg/mL and 0.497 µg/mL and 0.533 µg/mL and 0.674 µg/mL and 0.916 µg/mL and 0.777 µg/mL and 0.179 µg/mL and 1.631 µg/mL and 0.334 µg/mL and 1.11 µg/mL and 0.264 µg/mL and 3.14 µg/mL and 1.082 µg/mL and 1.887 µg/mL and 0.478 µg/mL and 1.912 µg/mL and 1.592 µg/mL and 2.909 µg/mL and 0.677 µg/mL | AUC0-12 [1, 8]: 17.779 µg·h/mL and 19.72 µg·h/mL and 22.367 µg·h/mL and 23.416 µg·h/mL and 16.365 µg·h/mL and 28.796 µg·h/mL and 13.072 µg·h/mL and 56.156 µg·h/mL and 22.089 µg·h/mL and 23.178 µg·h/mL and 18.745 µg·h/mL and 6.311 µg·h/mL and 38.119 µg·h/mL and 13.309 µg·h/mL and 22.361 µg·h/mL and 10.348 µg·h/mL and 32.689 µg·h/mL and 48.672 µg·h/mL and 23.856 µg·h/mL and 17.65 µg·h/mL and 43.163 µg·h/mL and 23.378 µg·h/mL and 30.601 µg·h/mL and 13.604 µg·h/mL | Cmax [1, 8]: 2.068 µg/mL and 2.948 µg/mL and 2.077 µg/mL and 7.6 µg/mL and 2.121 µg/mL and 2.58 µg/mL and 1.949 µg/mL and 7.45 µg/mL and 3.838 µg/mL and 6.56 µg/mL and 4.478 µg/mL and 1.922 µg/mL and 6.872 µg/mL and 4.037 µg/mL and 2.949 µg/mL and 2.603 µg/mL and 3.474 µg/mL and 7.043 µg/mL and 2.52 µg/mL and 2.531 µg/mL and 4.952 µg/mL and 4.452 µg/mL and 4.329 µg/mL and 3.053 µg/mL | Tmax [1, 8]: 2 h and 1 h and 6 h and 0.5 h and 4 h | AUC0-12 [1, 9]: 22.282 µg·h/mL and 21.01 µg·h/mL and 18.847 µg·h/mL and 15.424 µg·h/mL and 12.278 µg·h/mL and 13.221 µg·h/mL and 18.705 µg·h/mL and 20.068 µg·h/mL and 6.604 µg·h/mL and 36.219 µg·h/mL and 7.788 µg·h/mL and 19.634 µg·h/mL and 10.656 µg·h/mL and 48.381 µg·h/mL and 20.635 µg·h/mL and 28.583 µg·h/mL and 11.327 µg·h/mL and 30.027 µg·h/mL and 32.888 µg·h/mL and 38.889 µg·h/mL and 18.178 µg·h/mL | Cmax [1, 9]: 2.556 µg/mL and 2.756 µg/mL and 1.709 µg/mL and 5.026 µg/mL and 2.562 µg/mL and 1.911 µg/mL and 2.853 µg/mL and 2.578 µg/mL and 5.948 µg/mL and 2.203 µg/mL and 2.403 µg/mL and 1.992 µg/mL and 5.663 µg/mL and 5.314 µg/mL and 3.276 µg/mL and 4.296 µg/mL and 5.657 µg/mL and 5.617 µg/mL and 3.676 µg/mL and 3.89 µg/mL | Tmax [1, 9]: 2 h and 1 h and 6 h and 0.5 h and 4 h | mean Cmin at steady state, higher at 400 mg BID (with 200 mg run-in) than at 300 mg BID ([1]; steady state): ~40% | mean steady state exposure (200 mg BID 7 days then 400 mg BID) vs 300 mg BID ([1]; steady state): higher mean steady state exposure | confirmed partial responses (PRs) ([2]; 68 patients, QD and BID, as of September 2018, preliminary): six | unconfirmed PRs ([2]; 68 patients, as of September 2018, preliminary): two | confirmed PRs [2, 10]: Four | patients with SD as best response (2 being unconfirmed PRs) [2, 10]: 18 | Hypotension, all grades [3, 11]: 3 (16.7) | Hypotension, grade >3 [3, 11]: 0 | Hypotension, all grades [3, 12]: 4 (66.7) | Hypotension, grade >3 [3, 12]: 1 (16.7) | Hypotension, all grades [3, 13]: 7 (23.3) | Hypotension, grade >3 [3, 13]: 1 (3.3) | Dose limiting toxicities (DLTs) ([4]; BID schedule): 2 of 17 | maximum tolerated dose ([4]; BID schedule): 400 mg BID | Dose limiting toxicities (DLTs) ([4]; QD schedule): 7 of 38 | maximum tolerated dose ([4]; QD schedule): 500 mg QD | most common DLT ([4]; human, in vivo): hypotension | recommended dose for expansion (RDE) ([4]; human, in vivo): 300 mg BID
